Data published in ChEMBL document CHEMBL3608287, “Potential Treatment for the Respiratory Syncytial Virus Infections (HRSV)” (ACS Med Chem Lett, 2015).

Key:
[1] = Inhibition of Human respiratory syncytial virus RNP
[2] = Cytotoxicity against human MT4 cells; format: cell-based
[3] = tested on: Human orthopneumovirus; test: Antiviral activity against Human respiratory syncytial virus; format: functional, organism-based
[4] = Cytotoxicity against human Hep2 cells; format: cell-based, HEp-2

Row | Structure (SMILES) | IC50 [1] [µM] | EC50 [3] [µM] | CC50 [2] [µM] | CC50 [4] [µM]
1 | N#C[C@]1(CO)O[C@@H](c2ccc3c(N)ncnn23)[C@H](O)[C@@H]1O | – | 7.3 | > 53 | > 50
2 | N#C[C@]1(CO)O[C@@H](c2cc(F)c3c(N)ncnn23)[C@H](O)[C@@H]1O | – | 9.2 | > 93 | > 100
3 | CC(C)(C)C(=O)SCCOP(=O)(OCCSC(=O)C(C)(C)C)OC[C@@]1(C#N)O[C@@H](c2ccc3c(N)ncnn23)[C@H](O)[C@@H]1O | – | 1 | 7.3 | 39

Continued, in another order:

Row | IC50 [1] [µM] | EC50 [3] [µM] | Structure (SMILES) | CC50 [2] [µM] | CC50 [4] [µM]
4 | 1 | – | C#C[C@]1(COP(=O)(O)OP(=O)(O)OP(=O)(O)O)O[C@@H](c2ccc3c(N)ncnn23)[C@H](F)[C@@H]1O | – | –
5 | – | 9.6 | C#C[C@]1(CO)O[C@@H](c2ccc3c(N)ncnn23)[C@H](F)[C@@H]1O | > 106 | > 100
6 | – | 0.57 | [N-]=[N+]=N[C@]1(CO)O[C@@H](c2ccc3c(N)nc(F)nn23)[C@H](F)[C@@H]1O | 32 | > 100
